Article PMC10762078, “Role of UPF1-LIN28A interaction during early differentiation of pluripotent stem cells” (Nature Communications, 2024)

Tested on: UPF1-LIN28A interaction
Experiment: GST pull-down of MYC-UPF1 with GST-LIN28A in presence of CPP-conjugated peptide
Type: cell-based
Conditions: 293T cells, CPP-peptide 2 μM 12 h, n = 3
Method: For CPP-conjugated peptide delivery, HeLa, 293T, and PA-1 cells were incubated with CPP-conjugated peptides or CPP-FITC at 2 μM in DMEM with 10% FBS for 12 h a day before cell harvest. hPSCs were treated with CPP-conjugated peptides at 10 μM in mTeSR Plus Medium, and the peptide-containing medium was changed every day over 10 days. The ROCK inhibitor (Tocris Bioscience, Y-27632) treated-hPSCs were dissociated into single cells using Accutase (Merck, SCR005) and differentiated into ectoderm, mesoderm, and endoderm using the STEMdiff Trilineage Differentiation Kit ([…] Technologies, 05230) following the manufacturer’s protocol. Differentiated cells treated with CPP-conjugated peptides were analysed at 0, 3, and 5 days for ectoderm and endoderm, and at 0, 3, and 4 days for mesoderm.
Cells were lysed in ice-cold hypotonic buffer (10 mM Tris-Cl pH 7.5, 10 mM NaCl, 10 mM EDTA, 0.5% Triton X 100, Xpert Protease inhibitor cocktail solution, and Xpert Phosphatase inhibitor cocktail solution (GenDEPOT)). […]
Protein samples were loaded for electrophoresis on sodium dodecyl sulphate (SDS) polyacrylamide gels, followed by Coomassie blue staining or transferred to nitrocellulose membranes (Cytiva) for WB. […] The blots were imaged using ChemiDoc XRS+ System (Bio-Rad) and the greyscale intensity values were quantified using Image Lab 3.0 software (Bio-Rad).

## KKKWCRKKKSSADEKRYRALKRTAERELLMNA [CPP-P8, CPP conjugated to P8]
  coimmunoprecipitated MYC-UPF1 with GST-LIN28A: reduced upon CPP-P8 treatment
